Results published in US11203598B2, “Compounds for repressing cancer cell growth” (Institute For Cancer Research, priority 2018, dated 2021).

How the values were obtained:
Assay type in all cases: cell-based, human
[1] = system: p53 pathway proteins in DLD-1 cells; assay: Western blot of p53 targets and LC3B; details: for DR5 protein level: 8 and 24 hours
Procedure: (§1) After treatment, cells were harvested by trypsinization, washed with PBS, and lysed with RIPA buffer (Sigma-Aldrich) for 30 minutes to 1 hour at 4° C. Protein lysates were spun down and supernatant was collected. Protein quantification was performed using a Pierce™ BCA Protein Assay Kit (Thermo Fisher Scientific). 1×NuPAGE® LDS sample buffer (Thermo Fisher Scientific) and 2-Mercaptoethanol as the reducing agent (Sigma-Aldrich) were added to protein lysates, followed by boiling for 15 minutes at 95° C. Equal total protein amounts samples were loaded into NuPAGE™ Novex™ 4-12% Bis-Tris Protein Gels (1.5 mm, Thermo Fisher Scientific) and gel eletrophoresis was performed with NuPAGE™ MES SDS Running Buffer. Proteins were transferred onto an Immobilon-P membrane (PVDF, EMD Millipore) using a Bio-Rad system with a 10% Tris-Glycine and 10% methanol transfer buffer diluted in distilled and deionized water. After transfer, membranes were blocked with 10% milk in TBST solution and then incubated overnight with primary antibody, washed with TBST and incubated with secondary antibody for 1 hour. Incubations were performed in 5% milk in TBST solution. Signal was detected by using a chemiluminescent detection kit, followed by autoradiography. The following antibodies were used: p53 (DO-1, 1:1000, Santa Cruz), p73 (1:1000, Bethyl Laboratories), p21 and NOXA (1:250, EMD Millipore), DR5, FADD, cleaved caspase 3, cleaved caspase 8, cleaved PARP, and LC3B (1:1000, Cell Signaling), and β-actin (1:10000, Sigma).
(§2) Proteins were isolated using NP40 Lysis Buffer (20 mmol/L Tris-HCl (pH 7.4), 150 mmol/L NaCl, 5 mmol/L EDTA, 50 mmol/L NaF, 1 mmol/L glycerophosphate, 5 mmol/L Na4P2O7, 0.5% NP40, and complete protease inhibitor cocktail (Roche)) and electrophoresed through 4-12% SDS-PAGE followed by semi-dry transfer to PVDF membranes. The PVDF membranes were incubated with different antibodies including p21 (OP64-100UG, EMD Millipore (world wide web at emdmillipore.com/US/en/product/Antip21WAF1-(Ab-1)-Mouse-mAb-(EA10), EMD_BIO-OP64)), PUMA (12450S, Cell Signaling Technology, world wide web at cellsignal.com/products/primary-antibodies/puma-d30c10-rabbit-mab/12450), DR5 (3696S, Cell Signaling Technology, world wide web at cellsignal.com/products/primary-antibodies/dr5-antibody/3696?N=4294956287&Ntt=3696s&fromPage=plp& requestid=541668), p53(sc-126, Santa Cruz, world wide web at scbt.com/scbt/fr/product/p53-antibody-do-1), and RAN (610341, BD Transduction Laboratories, world wide web at bdbiosciences.com/us/reagents/research/antibodies-buffers/cell-biologyreagents/cell-biology-antibodies/purified-mouse-anti-ran-20ran/p/610341) in blocking buffer at 4° C. overnight. Bound antibody will be detected using IRDye secondary antibodies (LI-COR Biosciences,) in Odyssey blocking buffer for 1 hour then imaged using the ODYSSEY infrared imaging system.

[2] = system: p53 pathway proteins in p73 knockdown DLD-1 cells; assay: Western blot of p53 targets; details: for p21 expression: 8 and 24 hours
Procedure: as §1, §2

[3] = system: p53 targets in HCT116 p53-null cells; assay: Western blot of p53 targets
Procedure: as §1, §2

HCT116 p53-null cells [4] = assay: FACS sub-G1 analysis; details: 72 hours, dose dependent, over untreated controls
Procedure: (§3) Cells were seeded out at 1×10^6 cells/well on six well plates and treated with CB002 and Analog 11 at ranging doses with DMSO controls. Cells were harvested after 72 hours of treatment, all cells including floating cells were fixed with ethanol and stained with Propidium Iodide and then analyzed using Epics Elite flow cytometer to measure the DNA content of the stained cells.

HCT116 cells [5] = assay: FACS sub-G1 analysis; details: 72 hours, dose dependent, over untreated controls
Procedure: as §3

[6] = system: wild-type p53 and p53 targets in HCT116 cells; assay: Western blot of p53 and p53 targets; details: for wild-type p53 protein level: 24 hours, increasing dose
Procedure: as §1, §2

HCT116 p53-null cells [7] = assay: Cell Titer-Glo cell viability assay; details: 72 hours, dose dependent
Procedure: (§4) Cell lines at a concentration of 4×10^3 cells/well were seeded out on an opaque 96-well plate and treated with CB002 and Analog 11 in ranging doses starting from 200 μmol/L with DMSO controls. At 72 hours after treatment, cells were mixed with 30 μL Cell Titer-Glo reagent and after ten minutes of room temperature incubation were imaged using IVIS imaging system (Xenogen).

HCT116 cells [8] = assay: Cell Titer-Glo cell viability assay; details: 72 hours, dose dependent
Procedure: as §4

SW480 cells [9] = assay: CellTiter-Glo luminescent cell viability assay; details: 24 hours
[10] = system: p53 pathway proteins in SW480 cells; assay: Western blot of p53, p53 targets, apoptosis and autophagy markers; details: for Noxa expression: 24 hour, 100 μM CB002, 25 NM Analog 4, 100 μM Analog 11; for mutant p53 protein level: varying doses, anti-p53 (DO-1)
Procedure: as §1, §2

SW480 cells [11] = assay: apoptosis assay, sub-G1 analysis (propidium iodide, flow cytometry); details: for sub-G1 fraction: dose dependent, over untreated controls
Procedure: Apoptotic cells were quantified by sub-G1 analysis. Cells were seeded at a density of 2.5×10^5 to 5×10^5 in a 6-well plate and treated for 48-72 hours. After treatment, adherent cells were trypsinized and collected along with floating cells, washed with PBS and fixed in 70% ethanol. Cells were then incubated in a Phosphate-citric acid buffer (0.2 M Na2HPO4+0.1 M Citric Acid, pH 7.8) at room temperature for 5 minutes, spun down and resuspended for staining with 50 μg/mL propidium iodide (PI) in the presence of 250 μg/mL pancreatic ribonuclease (RNase A). Sub-G1 analyses were performed using an Epics Elite Epics flow cytometer (Coulter-Beckman).
as §3

[12] = 8 hours, 25 μmol/L and 50 μmol/L
[13] = 24 hours, 12 μmol/L of CB002 and 25 μmol/L of Analog 11

Row | Structure (SMILES) | DR5 protein level [1] | PUMA protein level [1, 12] | p21 protein level [1, 12] | PUMA protein level ([1]; 24 hours) | p21 protein level [1, 13] | p21 expression [2] | PUMA expression ([2]; 8 hours, over control) | PUMA expression ([2]; 24 hours) | p21 protein level ([3]; 8 hours) | p21 protein level ([3]; 24 hours) | sub-G1 fraction (HCT116 p53-null cells [4]) | sub-G1 fraction (HCT116 cells [5]) | p21 protein level ([6]; 8 and 24 hours) | wild-type p53 protein level [6] | cell viability (HCT116 p53-null cells [7]) | cell viability (HCT116 cells [8]) | Noxa expression [10] | mutant p53 protein level ([10]; 24 hours) | sub-G1 fraction (SW480 cells [11]; 72 hours) | other results
1 | Cn1c(=O)c2c(nc(Nc3ccccc3)n2C)n(C)c1=O [Analog 11, 8-anilino-1,3,7-trimethyl-3,7-dihydro-1Hpurine-2,6-dione] | no change of DR5 | an increase at the 25 μmol/L but not the 50 μmol/L | minor increase in p21 | an increase in PUMA | moderate increase in p21 | absent | increased expression | reduction in PUMA | increase moderately | no consistent difference | increased cells in sub-G1 fraction | increased cells in sub-G1 fraction | increase moderately in a dose dependent fashion | moderate increase in wild-type p53 | reduced cell viability | reduced cell viability | Induction of Noxa expression | decrease moderately | increased cells in sub-G1 fraction | PUMA protein level [3, 12]: appeared to increase; PUMA protein level ([3]; 24 hours): slight decrease; PUMA expression ([6]; 8 and 24 hours): increase only at 24 hours; combination index with Irinotecan (SW480 cells [9]; 0-100 μM Irinotecan with 0-200 μM Analog 11, CompuSyn): synergizes with Irinotecan
2 | Cn1c(=O)c2[nH]c(Nc3ccccc3)nc2n(C)c1=O [CB002, 8-anilino-1,3-dimethyl-3,7-dihydro-1H-purine-2,6-dione] | slightly increased | minor increase in PUMA | minor increase in p21 | an increase in PUMA | moderate increase in p21 | absent | increased expression | largely unchanged from control | increase moderately | no consistent difference | increased cells in sub-G1 fraction | increased cells in sub-G1 fraction | increase moderately in a dose dependent fashion | moderate increase in wild-type p53 | reduced cell viability | reduced cell viability | Induction of Noxa expression | decrease significantly | increased cells in sub-G1 fraction | LC3B protein expression time course ([1]; 160 μM, 0-48 hours): initial increase of LC3B; wild-type p53 expression ([6]; 50 and 100 μM): unable to decrease the expression of wild-type p53; combination index with Ganetespib (SW480 cells [9]; 0-20 μM Ganetespib with 0-200 μM CB002, CompuSyn): synergizes with Ganetespib; Noxa protein expression ([10]; 50 μM and 96 μM): increased; expression of p21 and DR5 ([10]; 12, 25, and 50 μM, 16 hours): increase the expression; p53 protein expression level (mutant p53) ([10]; 12, 25, and 50 μM, 16 hours, versus DMSO): constant p53 protein expression levels; cleaved PARP expression ([10]; 12, 25, and 50 μM, versus vehicle): observed to increase; LC3B expression (autophagy marker) ([10]; 50 and 96 μM): induce the expression of LC3B; cleaved caspase 3 and cleaved PARP expression ([10]; DR5 siRNA knockdown, 50 and 96 μM): continued to induce the expression; cleaved PARP expression ([10]; FADD knockdown cells, 24 hours): able to induce the expression of cleaved PARP; LC3B expression ([10]; NOXA knock-down cells, 50 and 96 μM): failed to induce LC3B expression; c-caspase 3 and cleaved PARP expression ([10]; NOXA shRNA knockdown, 50 and 96 μM): did not induce the expression of apoptotic markers; PARP cleavage ([10]; atg5 siRNA knockdown, 16 and 24 hours): complete loss of PARP cleavage; cleaved caspase 8 and cleaved PARP ([10]; combination with 50 μM chloroquine, 24 hours): reduced compared to CB002 alone; expression of p21, DR5 and PARP cleavage ([10]; p73 siRNA knockdown cells): increase the expression of p53 target genes p21 and DR5, and associated PARP cleavage; sub-G1 content (SW480 cells [11]; 96 μM, 48 hours, parental SW480 (NOXA experiment), DMSO 4.5%): 19%; sub-G1 population (SW480 cells [11]; 96 μM, 48 hours, DMSO control 8.7%): 32.6%; increase of cells in sub-G1 (SW480 cells [11]; 200 μM, 72 hours): 20%
